These results are taken from patent publication US20260285816A1, “Piperazinyl-Modified Quinazolinyl-Aryl Urea Derivative, And Preparation Method And Use Thereof” (Guangxi Normal University, priority 2025, published 2026).

In general, IC50 refers to the concentration needed to halve the response being measured.

Structures can show the parent of a compound that is named as a salt. Where two headings read alike, the source gives them in different places.

The test system of one data set is MG-63 cells. The experiment in a line: CCK-8 anti-proliferative assay, MG-63. Type of data set: cell-based, human. The conditions noted are these: Homo sapiens, MG-63, co-incubated 48 h, read-out: Anti-proliferative activity (IC50 ± standard deviation) MG-63. The procedure, abridged:
(§1)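 Human tumour cells were seeded at 5,000 per well and grown to 70% confluence. They were then treated in triplicate with compound at 1–30 μM (final) for the designated time. Viability was read by CCK-8 absorbance at 450 nm after 1–4 h, and IC50 was derived from % inhibition versus control.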

For another data set, the system named is 143B cells. The experiment in a line: CCK-8 anti-proliferative assay, 143B. The conditions noted are these: Homo sapiens, 143B, co-incubated 48 h, read-out: Anti-proliferative activity (IC50 ± standard deviation) 143B. Type of data set: cell-based, human. The method in brief: as §1
For orientation: Tetrazolium dyes change colour on reduction, which living cells bring about.

In a further data set the test system is human osteosarcoma 143B. The experiment in a line: 143B tumor-bearing nude mouse model. The settings on record: 40 mg/kg oral gavage, every 2 d, 42 d. Type of data set: in vivo, nude mice. The method, then: Experimental method: bladder cancer J82 cells in logarithmic growth phase were trypsinized, collected, and then centrifuged, and resuspended in serum-free DMEM medium after discarding an original medium. Cell density was adjusted, and 0.2 mL cell suspension was subcutaneously inoculated into 5-week-old BALB/c-nu mice (sex-balanced, 18-20 g) under a laminar flow clean bench. Post-inoculation, bleeding at injection sites was monitored. When tumors reached 50-80 mm^3, nude mice with good tumor growth status were randomized into 5 groups (n=6/group) for intraperitoneal administration. Tumor volume and body weight were recorded on Day 0. […] Dosing occurred every 2 d for 42 d. After administering the drug, mice were monitored for diarrhea, anorexia, lethargy, and allergic reactions (e.g., pruritus). The body weight of nude mice was measured every 2 days, and the long and short diameters of the tumors in nude mice were measured by using a vernier caliper, then the recording was finished.
Construction of the human osteosarcoma 143B tumor-bearing nude mouse model followed similar procedures, with identical dosing frequency but administration route changed to oral gavage. Specifically: When tumors reached 60-90 mm^3, mice were randomized into 4 groups (n=6). […]

The subject of the next data set is 5637 cells. The experiment in a line: CCK-8 anti-proliferative assay, 5637. The format is cell-based, human. The settings on record: Homo sapiens. The method in brief:
(§2)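 Anti-proliferative effect is measured by CCK-8 after compound exposure at nine final concentrations between 1 and 30 μM. Treatment starts once seeded cells (5,000/well) reach 70% confluency at 37° C., 5% CO2.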

Data set [1] deals with immortalized ureteral epithelial cells (SV-HUC-1). The experiment in a line: CCK-8 anti-proliferative assay, normal cells SV-HUC-1. The format is cell-based, human. The conditions noted are these: Homo sapiens, SV-HUC1, normal cells, co-incubated 48 h, read-out: Anti-proliferative activity (IC50 ± standard deviation) SV-HUC-1. The procedure, abridged:
as §2

Another data set has as its system BxPC-3 cells. Kind of data set: CCK-8 anti-proliferative assay, BxPC-3. Type of data set: cell-based, human. The conditions noted are these: for IC50: Homo sapiens, BXPC-3, co-incubated 48 h, read-out: Anti-proliferative activity (IC50 ± standard deviation) BxPC-3. The procedure, abridged:
as §1

The subject of the next data set is HeLa cells. Kind of data set: CCK-8 anti-proliferative assay, HeLa. Type of data set: cell-based, human. The method in brief:
as §2

Another data set has as its system Hep G2 cells. The experiment in a line: CCK-8 anti-proliferative assay, Hep G2. Type of data set: cell-based, human. The conditions noted are these: Homo sapiens, HepG2; Table 12; co-incubated 48 h; read-out: Anti-proliferative activity (IC50 ± standard deviation) Hep G2. The procedure, abridged: as §1
The subject of another data set is J82 cells. Kind of data set: CCK-8 anti-proliferative assay, J82. The format is cell-based, human. The conditions noted are these: Homo sapiens, J82. The procedure, abridged: as §2
In a further data set the test system is PANC-1 cells. The experiment in a line: CCK-8 anti-proliferative assay, PANC-1. The settings on record: for IC50: Homo sapiens, PANC-1, co-incubated 48 h, read-out: Anti-proliferative activity (IC50 ± standard deviation) PANC-1. Type of data set: cell-based, human. The method in brief: as §1
For another data set, the system named is SK-OV-3 cells. Kind of data set: CCK-8 anti-proliferative assay, SK-OV-3. Type of data set: cell-based, human. The conditions noted are these: Homo sapiens, SK-OV-3, co-incubated 48 h, read-out: Anti-proliferative activity (IC50 ± standard deviation) SK-OV-3. The procedure, abridged:
as §2

For data set [2], the system named is embryonic lung fibroblasts (WI-38). Kind of data set: CCK-8 anti-proliferative assay, normal cells WI-38. The format is cell-based, human. The settings on record: Homo sapiens, WI-38, Table 13, co-incubated 48 h, read-out: Anti-proliferative activity (IC50 ± standard deviation) WI-38. The procedure, abridged: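 Growth inhibition was measured by CCK-8 in human cells seeded at 5,000 per well and treated at 70% confluency. Compound exposure spanned 1, 2, 4, 6, 8, 12, 16, 24 and 30 μM for designated durations at 37° C. Percent inhibition against vehicle control at OD 450 nm yielded median inhibitory concentrations.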

The test system of another data set is T24 cells. The experiment in a line: CCK-8 anti-proliferative assay, T24. Type of data set: cell-based, human. The conditions noted are these: Homo sapiens, T-24; Table 10; co-incubated 48 h; read-out: Anti-proliferative activity (IC50 ± standard deviation) T24. The method in brief: as §1
The test system of data set [3] is UM-UC-3 cells. Kind of data set: Cell cycle analysis (PI staining, flow cytometry), UM-UC-3. The format is cell-based, human. On the procedure:
Tumor cells (T24, UM-UC-3, 143B, BxPC-3) in logarithmic growth phase were inoculated into 70 mm culture dishes. After 70% confluency was reached, medium was replaced and treated with: compound 8-1j, ferroptosis inducer Erastin, or cell cycle blocker paclitaxel (PTX) for a specified duration. Post-incubation, cells were trypsinized, collected, centrifuged, and washed 2 times with pre-cooled phosphate-buffered saline (PBS). Pre-cooled 75% ethanol was added dropwise during vortexing for fixation at −20° C. overnight. After centrifugation (10 min), supernatant was discarded. Cells were rewashed with PBS and centrifuged. Following kit instructions (Beyotime, C1052, China), 0.5 mL staining buffer, 25 μL PI (propidium iodide) stain (20×), and 10 μL RNase A (50×) were mixed per sample. Cells were resuspended in PI staining solution and incubated at 37° C. in dark for 30 min (gentle shaking every 10 min). Samples were filtered through 200-mesh filters, transferred into a flow tube, and analyzed via BD FACSVerse flow cytometer. All experiments were conducted in 3 repeats. Compounds 8-2h and 8-2j were evaluated identically.
In general terms: Flow cytometry measures light scatter and fluorescence of single cells or particles in a stream.

The subject of another data set is A549 cells. The experiment in a line: CCK-8 anti-proliferative assay, A549. The format is cell-based, human. The procedure, abridged:
as §2

Data set [4] concerns UM-UC-3 cells. The experiment in a line: CCK-8 anti-proliferative assay, UM-UC-3. The conditions noted are these: Homo sapiens, UMUC3, co-incubated 48 h, read-out: Anti-proliferative activity (IC50 ± standard deviation) UM-UC-3. Type of data set: cell-based, human. The method in brief: as §2
The next data set relates to MCF-7 cells. Kind of data set: CCK-8 anti-proliferative assay, MCF-7. The format is cell-based, human. The conditions noted are these: Homo sapiens, MCF7; Table 12; co-incubated 48 h; read-out: Anti-proliferative activity (IC50 ± standard deviation) MCF-7. The procedure, abridged: as §2
The conditions of data set [5]: background; cited from earlier work.
For data set [6] the following is noted: background; cited from earlier work. The source holds these as a separate data set.

Turning to `N#CC1(c2ccc(NC(=O)c3cccnc3NCc3ccncc3)cc2)CCCC1` [Apat, apatinib mesylate, reference compound], the IC50 in the data set with MG-63 cells (Table 7) was over 30 µM; with 143B cells (Table 7), 28.4 ± 1.29 µM. The Tumor inhibition entry with human osteosarcoma 143B is “weak tumor inhibition activity”.
For the molecule `COc1cc2ncnc(NCc3cccc(NC(=O)Nc4ccc(C(C)(C)C)cc4)c3)c2cc1OCCCCCCN1CCC(CN2CCN(c3ccccn3)CC2)CC1` [Compound 8-2j, N-(3-(((7-methoxy-6-((6-(4-((4-(pyridin-2-yl)piperazin-1-yl)methyl)piperidin-1-yl)hexyl)oxy)quinazolin-4-yl)amino)methyl)phenyl)-N′-(4-tert-butylphenyl)urea], the IC50 in the data set with 5637 cells (Table 10, co-incubated 48 h, read-out: Anti-proliferative activity (IC50 ± standard deviation) 5637) was determined as 2.97 ± 0.23 µM; with 5637 cells (read-out: IC50 values against 5637 cells), 2.97 ± 0.23 µM; in data set [1] (Table 13), 8.91 ± 0.72 µM; with BxPC-3 cells (Table 11), 6.15 ± 0.47 µM; with HeLa cells (Homo sapiens, HeLa, Table 12, co-incubated 48 h, read-out: Anti-proliferative activity (IC50 ± standard deviation) HeLa) it was 3.81 ± 0.25 µM; in the data set with Hep G2 cells, 3.81 ± 0.24 µM. Moreover, the IC50 in the data set on J82 cells (Table 10, co-incubated 48 h, read-out: Anti-proliferative activity (IC50 ± standard deviation) J82) turned out to be 3.42 ± 0.25 µM; in the data set on J82 cells (read-out: IC50 values against J82 cells), 3.42 ± 0.25 µM; with PANC-1 cells (Table 11) it was 5.46 ± 0.31 µM; in the data set with MG-63 cells (Table 11), 4.64 ± 0.32 µM; in the data set on SK-OV-3 cells (Table 12), 4.61 ± 0.38 µM; in [2], 8.79 ± 0.42 µM. For the same molecule, the IC50 in the data set with 143B cells (Table 11) was 5.59 ± 0.49 µM; in the data set on T24 cells it was 3.32 ± 0.15 µM; in the data set on A549 cells (Homo sapiens, A549, Table 13, co-incubated 48 h, read-out: Anti-proliferative activity (IC50 ± standard deviation) A549), 3.09 ± 0.24 µM; in the data set with UM-UC-3 cells [4] (Table 10), 4.66 ± 0.29 µM; with MCF-7 cells it was 5.73 ± 0.59 µM. For the same molecule, the “Sensitivity of BxPC-3 / anti-proliferative activity against BxPC-3, in words” value in the data set with BxPC-3 cells is “heightened sensitivity”. Also, the “Sensitivity of HeLa, in words” value with HeLa cells is “sensitive”. Further, the “Sensitivity of PANC-1, in words” value in the data set with PANC-1 cells is “heightened sensitivity”. For the same molecule, the “Effect of co-administration with PTX on cell cycle” value in the data set on UM-UC-3 cells [3] (UM-UC-3, with PTX) was “Synergistic effects”. The “Cell cycle arrest phase” value in the data set with UM-UC-3 cells [3] (UM-UC-3 cells (FIG. 45)) was “arrest cell cycle at G2/M phase”. Also, the “Activity against A549 versus the 8-1 to 8-23 series, in words” value in the data set on A549 cells is “significantly enhanced activity against A549”.
`CNC(=O)c1cc(Oc2ccc(NC(=O)Nc3ccc(Cl)c(C(F)(F)F)c3)cc2)ccn1` [Sora, sorafenib, reference compound]: the IC50 in [1] (Table 9) worked out at 10.8 ± 0.54 µM; in the data set with BxPC-3 cells (Table 7), 13.4 ± 1.27 µM; in the data set on PANC-1 cells (Table 7) it was 8.13 ± 0.56 µM; in the data set on MG-63 cells (Table 7), 27.2 ± 1.89 µM; in the data set on SK-OV-3 cells (Table 9) it was 13.8 ± 0.78 µM; with 143B cells (Table 7) it was 22.7 ± 1.59 µM. Moreover, in the data set on UM-UC-3 cells [4] (Table 6), the IC50 is 14.3 ± 1.51 µM. Moreover, the Water solubility result in data set [5] was “poor aqueous solubility”. Also, the “Sensitivity of BxPC-3 / anti-proliferative activity against BxPC-3, in words” value in the data set on BxPC-3 cells is listed as “weak anti-proliferative activity”. For the same molecule, in [6], the Elimination/metabolism entry is given as “rapid elimination/metabolism”. In addition, the Oral bioavailability result in data set [6] is “low oral bioavailability”.
